Test results published in US20150306110A1, “COMPOSITIONS AND METHODS FOR TREATMENT OF INFLAMMATION AND HYPERKERATOTIC LESIONS” (Novelix Pharmaceuticals, Inc., priority 2008, published 2015).
In brackets after ≈: the same amount, converted by molar mass.

Experiment: Solubility in ethanol, DMSO and ethanol-Tween 80
Format: physicochemical
Conditions: organic solvent or mixture
Procedure: After solution in ethanol or DMSO, or chemically similar solvents, NVX-207 or a related compound may be formulated with co-solvents such as Cremophor EL® and/or Tween® 80, in a similar manner described for taxanes. For example, the formulation approach for paclitaxel (TAXOL®; Bristol-Myers Squibb) was to use 50% Cremophor EL® and 50% ethanol. The pharmaceutical formulation of paclitaxel contains 30 mg paclitaxel dissolved in 5 ml of this (1:1, v/v) mixture. These and equivalent formulations allow for the application of NVX-207 in sufficiently high concentrations not only for topical, but also for intralesional and systemic (intravenous infusion) use. Solubility of NVX-207 in ethanol was determined to be at least 300 mg/ml and reached 250 mg/ml in DMSO. […] The solubility of NVX-207 in ethanol-Tween® 80 was evaluated. Two-hundred mg of NVX-207 was dissolved in 1 ml ethanol. […] Then an equal volume of Tween® 80 was added, to achieve a stock solution of 100 mg/ml of NVX-207. The stock solution was clear and yellow. Each stock solution was diluted first 1:1 (50 mg/ml NVX-207), then 1:5 (20 mg/ml NVX-207) and finally 1:10 (10 mg/ml NVX-207) with water. […] NVX-207 therefore has, apart from its higher activity, significant advantages over betulinic acid, that include higher activity, better solubility in pharmaceutically suitable solvents, and better handling.

Question: For `C=C(C)[C@@H]1CC[C@]2(C(=O)O)CC[C@]3(C)[C@H](CC[C@@H]4[C@@]5(C)CC[C@H](O)C(C)(C)[C@@H]5CC[C@]43C)[C@@H]12` [betulinic acid, reference compound], which solubility (Solubility in DMSO) is on record?
Answer: 10000 µg/mL (≈ 21.9 mM)

Question: What about the solubility (Solubility in ethanol) of the same compound?
Answer: < 1000 µg/mL
